By Emax is commonly meant the greatest response seen or fitted, relative to the assay's reference. A word on the EC50: it is the concentration giving half of the maximal effect. Usually melting point stands for the temperature of the solid-liquid transition.

The structures appear in SMILES notation.

Series [1] concerns the target T1, Human 5-HT4(d) (Homo sapiens, UniProt Q13639).
T1 construct: expressed in transfected cells
The series can be described thus: Agonist-induced cAMP elevation in human 5-HT4(d) transfected HEK293 cells. Format: cell-based. Conditions: for Emax: HEK293, cAMP production normalized to the amount produced by 1,000 nM serotonin; for EC50: cAMP elevation (HTRF), human 5-HT4(d) transfected HEK293 cells. The protocol: Human 5-HT4(d) transfected HEK293 cells were established in-house. The cells were grown at 37° C. and 5% CO2 in DMEM supplemented with 10% FCS, 20 mM HEPES (pH 7.4), 200 μg/ml hygromycin B (Gibco), 100 units/ml penicillin and 100 μg/ml streptomycin.
The cells were grown to 60-80% confluence. On the previous day before treatment with compounds dialyzed FCS (Gibco) was substituted for normal and the cells were incubated overnight.
Compounds were prepared in 96-well plates (12.5 μl/well). The cells were harvested with PBS/1 mM EDTA, centrifuged and washed with PBS. At the beginning of the assay, cell pellet was resuspended in DMEM supplemented with 20 mM HEPES, 10 μM pargyline (Sigma) and 1 mM 3-isobutyl-1-methylxanthine (Sigma) at the concentration of 1.6×10^5 cells/ml and left for 15 min at room temperature. The reaction was initiated by addition of the cells into plates (12.5 μl/well). After incubation for 15 min at room temperature, 1% Triton X-100 was added to stop the reaction (25 μl/well) and the plates were left for 30 minutes at room temperature. Homogenous time-resolved fluorescence-based cAMP (Schering) detection was made according to the manufacturer's instruction. ARVOsx multilabel counter (Wallac) was used to measure HTRF (excitation 320 nm, emission 665 nm/620 nm, delay time 50 μs, window time 400 μs).
Data was analyzed based on the ratio of fluorescence intensity of each well at 620 nm and 665 nm followed by cAMP quantification using cAMP standard curve. Enhancement of cAMP production elicited by each compound was normalized to the amount of cAMP produced by 1,000 nM serotonin (Sigma).
(In general: Cyclic AMP is a second messenger, typically raised through Gs and lowered through Gi signalling.)

T1 sequence (Q13639 1-360 isoform Q13639-3): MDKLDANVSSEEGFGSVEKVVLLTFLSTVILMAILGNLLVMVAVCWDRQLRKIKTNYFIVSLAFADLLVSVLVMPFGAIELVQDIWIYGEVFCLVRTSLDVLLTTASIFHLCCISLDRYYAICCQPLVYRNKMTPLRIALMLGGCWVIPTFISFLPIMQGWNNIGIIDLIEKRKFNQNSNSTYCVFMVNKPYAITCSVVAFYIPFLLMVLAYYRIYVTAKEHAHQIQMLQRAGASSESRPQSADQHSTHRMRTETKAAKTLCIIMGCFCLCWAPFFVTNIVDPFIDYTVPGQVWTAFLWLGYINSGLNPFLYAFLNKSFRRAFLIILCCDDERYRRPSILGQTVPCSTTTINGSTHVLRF

`O=C(O)C1(CN2CCC(COc3noc4cccc(O[C@H]5CC[C@@H](CO)CC5)c34)CC2)CCOCC1` [Example 46, 4-[(4-{[(4-{[cis-4-(Hydroxymethyl)cyclohexyl]oxy}-1,2-benzisoxazol-3-yl)oxy]methyl}piperidin-1-yl)-methyl]tetrahydro-2H-pyran-4-carboxylic acid] came in with a melting point of 197.2 °C. Also, in series [1], the Emax came out at 45% and the EC50 was found to be 5.5 nM.

For `O[C@H]1CCCC[C@H]1Oc1cccc2onc(OCC3CCN(CC4(O)CCOCC4)CC3)c12` (relative stereo) [Example 40, 4-({4-[({4-[(cis-2-Hydroxycyclohexyloxyl)oxy]-1,2-benzisoxazol-3-yl]oxy)methyl}piperidin-1-yl}-methyl)tetrahydro-2H-pyran-4-ol], the melting point came out at 125.2 °C. Also, in series [1], the Emax was 42% and the EC50 came to 16 nM.

For `CC(C)COc1cccc2onc(OCC3CCN(CC(C)(C)C(=O)O)CC3)c12` [Example 11, 3-(4-{[(4-Isobutoxy-1,2-benzisoxazol-3-yl)oxy]methyl}piperidin-1-yl)-2,2-dimethylpropanoic acid], the melting point was 123.7 °C. In series [1], this compound came in with an Emax of 29% and an EC50 of 1.4 nM.

Consider `CC(C)(CN1CCC(COc2noc3cccc(OCC4CCC4)c23)CC1)C(=O)O` [Example 19, 3-[4-({[4-(Cyclobutylmethoxy)-1,2-benzisoxazol-3-yl]oxy}methyl)piperidin-1-yl]-2,2-dimethyl-propanoic acid], for which the melting point was 139.8 °C. Further, in series [1], the Emax was 45% and the EC50 is 0.16 nM.

Compound `O=C(O)C1(CCN2CCC(COc3noc4cccc(OCC5CCCC5)c34)CC2)CCOCC1` [Example 23, 4-{2-[4-({[4-(Cyclopentylmethoxy)-1,2-benzisoxazol-3-yl]oxy}methyl)piperidin-1-yl]ethyl}tetrahydro-2H-pyran-4-carboxylic acid] yielded a melting point of 212.5 °C. In series [1], this compound came in with an Emax of 77% and an EC50 of 22 nM.

In the case of `O=C(O)[C@H]1CC[C@H](CN2CCC(COc3noc4cccc(O[C@H]5CC[C@@H](O)CC5)c34)CC2)CC1` [Example 44, trans-4-({4-[({4-[(cis-4-Hydroxycyclohexyl)oxy]-1,2-benzisoxazol-3-yl}oxy)methyl]piperidin-1-yl}-methyl)cyclohexanecarboxylic acid], the melting point stood at 182.7 °C. In series [1], this compound had an Emax of 55% and an EC50 of 2.4 nM.

The compound `O=C(O)C1(CN2CCC(COc3noc4cccc(OCC5(CO)CCC5)c34)CC2)CCC1` [Example 50] yielded a melting point of 194.2 °C. In series [1], this compound yielded an Emax of 50% and an EC50 of 98 nM.

`O=C(O)C1(CCN2CCC(COc3noc4cccc(OCC5CCC5)c34)CC2)CCOCC1` [Example 21, 4-{2-[4-({[4-(cyclobutylmethoxy)-1,2-benzisoxazol-3-yl]oxy}methyl)piperidin-1-yl]ethyl}tetrahydro-2H-pyran-4-carboxylic acid]: the melting point was found to be 223.2 °C. Moreover, in series [1], the Emax was 61% and the EC50 came to 5.3 nM.

The record behind these values is patent US8816090B2, “Benzisoxazole derivatives” (Pfizer Inc., priority 2005, dated 2014).
